The values that follow are results of earlier work, collected in patent US8901133B2, “Heterocyclic compounds and uses thereof” (Infinity Pharmaceuticals, Inc., priority 2010, dated 2014).

In this data set the test system is lupus symptoms. Conditions: B6.Sle1z.Sle3z model; cited from earlier work.

On to `CO[C@H]1C[C@@H]2CC[C@@H](C)[C@@](O)(O2)C(=O)C(=O)N2CCCC[C@H]2C(=O)O[C@H]([C@H](C)C[C@@H]2CC[C@@H](OCCO)[C@H](OC)C2)CC(=O)[C@H](C)/C=C(\C)[C@@H](O)[C@@H](OC)C(=O)[C@H](C)C[C@H](C)/C=C/C=C/C=C/1C` [RAD001, everolimus], for which the lupus symptoms entry is on record as “ameliorate lupus symptoms”.
